Measurements: patent US6632829B2, “Sulfonamides and derivatives thereof that modulate the activity of endothelin” (Texas Biotechnology Corp., priority 1996, dated 2003)

How the values were obtained:
human ETB receptor = biological target: T1, human ETB receptor (Homo sapiens, UniProt P24530); experiment: Endothelin binding inhibition, Binding Test #2: competition with 125I-ET-1 for ETB receptors on transfected COS7 cell membranes
T1 construct: expressed in transfected cells; host or cells: COS7 cells
T1 sequence (P24530 27-442): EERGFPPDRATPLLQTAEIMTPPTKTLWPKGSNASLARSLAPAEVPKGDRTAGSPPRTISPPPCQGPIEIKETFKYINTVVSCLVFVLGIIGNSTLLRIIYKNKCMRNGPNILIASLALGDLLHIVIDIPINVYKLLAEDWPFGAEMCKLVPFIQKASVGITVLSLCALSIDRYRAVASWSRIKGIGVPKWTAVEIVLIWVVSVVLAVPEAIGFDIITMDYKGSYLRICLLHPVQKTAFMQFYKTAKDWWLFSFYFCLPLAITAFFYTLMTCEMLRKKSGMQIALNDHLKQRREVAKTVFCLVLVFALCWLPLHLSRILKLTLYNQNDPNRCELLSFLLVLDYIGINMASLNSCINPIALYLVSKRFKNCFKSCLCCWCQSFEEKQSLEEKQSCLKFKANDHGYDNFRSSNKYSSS
How it was run: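 Membranes from COS7 cells transfected with human ETB receptor, prepared in HEPES pH 7.4 with aprotinin, MnCl2/DNase treatment at 37° C for 30 min. Test compounds compete with 125I-labeled ET-1 for receptor binding; membrane used at 1 μg/50 μL binding buffer.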

human ETA receptors = biological target: T2, human ETA receptors (Homo sapiens, UniProt P25101); experiment: Endothelin binding inhibition, Binding Test #1: competition with 125I-ET-1 for ETA receptors on TE 671 cell membranes
T2 construct: endogenous in cells; host or cells: TE 671 cells (ATCC HTB 139), membrane preparation
T2 sequence (P25101 21-427): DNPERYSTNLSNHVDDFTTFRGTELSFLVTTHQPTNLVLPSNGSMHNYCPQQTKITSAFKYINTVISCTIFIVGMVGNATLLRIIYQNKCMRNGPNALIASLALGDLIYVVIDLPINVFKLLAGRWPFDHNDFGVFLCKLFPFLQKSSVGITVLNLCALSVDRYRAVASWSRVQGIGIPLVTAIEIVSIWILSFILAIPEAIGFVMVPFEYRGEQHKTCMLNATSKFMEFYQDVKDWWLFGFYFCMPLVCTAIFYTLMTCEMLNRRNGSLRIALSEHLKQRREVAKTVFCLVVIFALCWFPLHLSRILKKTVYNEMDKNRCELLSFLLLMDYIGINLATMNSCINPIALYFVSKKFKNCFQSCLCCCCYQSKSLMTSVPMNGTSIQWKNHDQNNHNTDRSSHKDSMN

[1] = incubation at 24° C. (values marked †)
[2] = incubation at 4° C. (values without †)

Compound	IC50 (human ETB receptor; [1]) [µM]	IC50 (human ETA receptors; [1]) [nM]	inhibition at 100 µM (human ETB receptor; read-out: ETB % inhibition @ 100 μM, @ 100 μM, incubation at 24° C.) [%]	IC50 (human ETB receptor; [2]) [µM]	IC50 (human ETA receptors; [2]) [nM]
Cc1ccc(OC(=O)c2sccc2S(=O)(=O)Nc2onc(C)c2Cl)cc1 [N-(4-chloro-3-methyl-5-isoxazolyl)-2-[(4-methylphenoxy)carbonyl]thiophene-3-sulfonamide]	–	3200	43	–	–
Cc1noc(NS(=O)(=O)c2ccsc2CC(c2ccc3c(c2)OCO3)N(C)C)c1Cl (stereo not drawn) [N-(4-chloro-3-methyl-5-isoxazolyl)-2-[β-(dimethylamino)-3,4-(methylenedioxy)phenethy]thiophene-3-sulfonamide]	~100	20900	–	–	–
Cc1noc(NS(=O)(=O)c2ccsc2N)c1Cl [N-(4-chloro-3-methyl-5-isoxazolyl)-2-aminothiophene-3-sulfonamide]	6.2	14000	–	–	–
COC(=O)c1sccc1S(=O)(=O)Nc1onc(C)c1Cl [N-(4-chloro-3-methyl-5-isoxazolyl)-2-methoxycarbonylthiophene-3-sulfonamide]	–	–	–	53.2	631
Cc1noc(NS(=O)(=O)c2ccsc2C(=O)C(C#N)c2ccc3c(c2)OCO3)c1Cl (centres unmarked) [N-(4-chloro-3-methyl-5-isoxazolyl)-2-{1-cyano-1-[(3,4-methylenedioxy)phenyl]acetyl}thiophene-3-sulfonamide]	27	2100	–	–	–
Cc1noc(NS(=O)(=O)c2ccsc2C(=O)N2CCN(Cc3ccc4c(c3)OCO4)CC2)c1Cl [N-(4-chloro-3-methyl-5-isoxazolyl)-2-{[4-(3,4-methylenedioxybenzyl)piperazin-1-yl]carbonyl}thiophene-3-sulfonamide]	> 100	20000	–	–	–
Cc1noc(NS(=O)(=O)c2ccsc2C(=O)C(O)c2ccc3c(c2)OCO3)c1Cl (stereo not drawn) [N-(4-chloro-3-methyl-5-isoxazolyl)-2-{α-hydroxy-[3,4-(methylenedioxy)phenyl]acetyl}thiophene-3-sulfonamide]	30	2500	–	–	–
Cc1noc(NS(=O)(=O)c2ccc(C(=O)Nc3ccccc3)s2)c1Cl [N-(4-chloro-3-methyl-5-isoxazolyl)-5-(phenylaminocarbonyl)thiophene-2-sulfonamide]	60.6	28100	–	–	–
COc1ccc2c(S(=O)(=O)Nc3onc(C)c3Cl)c(Cc3ccc4c(c3)OCO4)sc2c1 [N-(4-chloro-3-methyl-5-isoxazolyl)-6-methoxy-2-[3,4-(methylenedioxy)benzyl]benzo[b]thiophene-3-sulfonamide]	2.39	~2000	–	–	–
Cc1ccc(CC(=O)c2sccc2S(=O)(=O)Nc2onc(C)c2Cl)c(C)c1 [N-(4-chloro-3-methyl-5-isoxazolyl)-(2,4-dimethylphenylacetyl)thiophene-3-sulfonamide]	4.8	0.4	–	–	–
CC(=O)OCc1c(C)cc(C)c(NC(=O)c2sccc2S(=O)(=O)Nc2noc(C)c2Cl)c1C [N-(4-chloro-5-methyl-3-isoxazolyl)-2-(3-acetoxymethyl-2,4,6-trimethylphenylaminocarbonyl)thiophene-3-sulfonamide]	19.7	0.51	–	–	–
N-2-[3,4-(methylenedioxy)phenylacetyl]thiophene-3-sulfonamide	32.5	1800	–	–	–
N-(4-chloro-3-methyl-5-isoxazolyl)-2-[2-methyl-4,5-(methylenedioxy)phenylhydroxyimino]thiophene-3-sulfonamide	6.49	794	–	–	–
N-(4-chloro-3-methyl-5-isoxazolyl)-2-[β-acetoxy-2-methyl-4,5-(methylenedioxy)styryl]thiophene-3-sulfonamide	3.74	–	–	–	5.44
N-(4-chloro-3-methyl-5-isoxazolyl)-2-phenylbenzo[b]thiophene sulfonamide	46.8	932	–	–	–

Now from value to compound:

IC50 (human ETB receptor; [1]) [µM]	IC50 (human ETA receptors; [1]) [nM]	inhibition at 100 µM (human ETB receptor; read-out: ETB % inhibition @ 100 μM, @ 100 μM, incubation at 24° C.) [%]	IC50 (human ETB receptor; [2]) [µM]	IC50 (human ETA receptors; [2]) [nM]	Compound
9.78	0.266	–	–	–	COC(=O)c1cc(C)c(NC(=O)c2sccc2S(=O)(=O)Nc2onc(C)c2Cl)c(C)c1 [N-(4-chloro-3-methyl-5-isoxazolyl)-2-[(4-methoxycarbonyl-2,6-dimethyl)phenylaminocarbonyl]thiophene-3-sulfonamide]
15	23	–	–	–	COc1ccc(OC(=O)c2sccc2S(=O)(=O)Nc2onc(C)c2Cl)cc1 [N-(4-chloro-3-methyl-5-isoxazolyl)-2-[(4-methoxyphenoxy)carbonyl]thiophene-3-sulfonamide]
10.1	43	–	–	–	COc1ccc(CC(=O)c2sccc2S(=O)(=O)Nc2onc(C)c2Cl)cc1 [N-(4-chloro-3-methyl-5-isoxazolyl)-2-[(4-methoxyphenyl)acetyl]thiophene-3-sulfonamide]
14	10.5	–	2.93	1.16	Cc1ccc(NC(=O)c2sccc2S(=O)(=O)Nc2onc(C)c2Cl)cc1 [N-(4-chloro-3-methyl-5-isoxazolyl)-2-[(4-tolyl)aminocarbonyl]thiophene-3-sulfonamide]
92	56	–	–	–	Cc1cc(NC(=O)c2sccc2S(=O)(=O)Nc2onc(C)c2Cl)no1 [N-(4-chloro-3-methyl-5-isoxazolyl)-2-[(5-methyl-3-isoxazolyl)aminocarbonyl]thiophene-3-sulfonamide]
12.2	3.9	–	–	–	COc1cc(C#N)c(NC(=O)c2sccc2S(=O)(=O)Nc2onc(C)c2Cl)cc1OC [N-(4-chloro-3-methyl-5-isoxazolyl)-2-[{2-cyano-4,5-dimethoxyphenyl)aminocarbonyl]thiophene-3-sulfonamide]
2.09	128	–	–	–	Cc1noc(NS(=O)(=O)c2ccsc2CC2(c3ccc4c(c3)OCO4)OCCO2)c1Cl [N-(4-chloro-3-methyl-5-isoxazolyl)-2-[β,β-(ethylenedioxy)-3,4-(methylenedioxy)phenethyl]thiophene-3-sulfonamide]
16	53	–	–	–	Cc1noc(NS(=O)(=O)c2ccsc2CC(O)c2ccc3c(c2)OCO3)c1Cl (stereo not drawn) [N-(4-chloro-3-methyl-5-isoxazolyl)-2-[β-hydroxy(3,4-methylenedioxy)phenylethyl]thiophene-3-sulfonamide]
22	150	–	–	–	CCc1oc2ccccc2c1S(=O)(=O)Nc1onc(C)c1Cl [N-(4-chloro-3-methyl-5-isoxazolyl)-2-ethylbenzo[b]furan-3-sulfonamide]
13.8	9	–	–	–	Cc1noc(NS(=O)(=O)c2ccsc2C(=O)Nc2cc3c(cc2CC(=O)N(C)C)OCO3)c1Cl [N-(4-chloro-3-methyl-5-isoxazolyl)-2-{2-[(dimethylamino)carbonylmethyl]-4,5-(methylenedioxy)phenylaminocarbonyl}thiophene-3-sulfonamide]
3.08	0.88	–	–	–	Cc1cc(C)c(NC(=O)c2sccc2S(=O)(=O)Nc2noc(C)c2Cl)c(C)c1CO [N-(4-chloro-5-methyl-3-isoxazolyl)-2-(3-hydroxymethyl-2,4,6-trimethylphenylaminocarbonyl)thiophene-3-sulfonamide]
3.69	0.625	–	–	–	Cc1cc2c(cc1CC(=O)c1sccc1S(=O)(=O)Nc1noc(C)c1Cl)OCO2 [N-(4-chloro-5-methyl-3-isoxazolyl)-2-[2-methyl-4,5-(methylenedioxy)phenylacetyl]thiophene-3-sulfonamide]
0.364	5.5	–	–	–	Cc1onc(NS(=O)(=O)c2c(Cc3ccc4c(c3)OCO4)sc3ccccc23)c1Cl [N-(4-chloro-5-methyl-3-isoxazolyl)-2-[3,4-(methylenedioxy)benzyl]benzo[b]thiophene-3-sulfonamide]
29.2	2.7	–	–	–	N-(3,4-dimethyl-5-isoxazolyl)-2-(4-tolylacetylphenyl)thiophene-3-sulfonamide
8.3	7.3	–	–	–	N-(4-chloro-3-methyl-5-isoxazolyl)-2-[2-hydroxypropyl-4,5-(methylenedioxy)phenylaminocarbonyl]thiophene-3-sulfonamide
